One block for each compound: values may come before it.
Columns and labels:
Format in all cases: in vivo
Settings in all cases: post-emergence spray at 4-5 leaf stage, 250 g/ha active ingredient with 450 kg/ha water, rated after 3 weeks in greenhouse
wheat = test: post-emergence stage experiment, crop (Table 1)
Procedure, shortened: (§1)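 Seeds were sown in pots, covered with 0.5-2 cm soil and grown in a greenhouse. At the 4-5 leaf stage, plants were sprayed with the test compound formulated in acetone, Tween 80 and water. Fresh weight control was rated after 3 weeks.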

corn = test: post-emergence stage experiment, crop (Table 1)
Procedure, shortened: as §1

echinochloa = test: weed control effect in post-emergence stage (Table 1); set-up: key: Level 10: completely dead; Level 9: above 95% growth control rate; Level 8: above 90% growth control rate; Level 7: above 80% growth control rate; Level 6: above 70% growth control rate; Level 5: above 60% growth control rate; Level 4: above 50% growth control rate; Level 3: above 20% growth control rate; Level 2: 5%-20% growth control rate; Level 1: below 5% growth control rate
Procedure, shortened: as §1

Indian mallow = test: as above; set-up: key: Level 10: completely dead; Level 9: above 95% growth control rate; Level 8: above 90% growth control rate; Level 7: above 80% growth control rate; Level 6: above 70% growth control rate; Level 5: above 60% growth control rate; Level 4: above 50% growth control rate; Level 3: above 20% growth control rate; Level 2: 5%-20% growth control rate; Level 1: below 5% growth control rate
Procedure, shortened: as §1

bidens bipinnata = test: as above; set-up: key: Level 10: completely dead; Level 9: above 95% growth control rate; Level 8: above 90% growth control rate; Level 7: above 80% growth control rate; Level 6: above 70% growth control rate; Level 5: above 60% growth control rate; Level 4: above 50% growth control rate; Level 3: above 20% growth control rate; Level 2: 5%-20% growth control rate; Level 1: below 5% growth control rate
Procedure, shortened: as §1

rorippa indica = test: as above; set-up: key: Level 10: completely dead; Level 9: above 95% growth control rate; Level 8: above 90% growth control rate; Level 7: above 80% growth control rate; Level 6: above 70% growth control rate; Level 5: above 60% growth control rate; Level 4: above 50% growth control rate; Level 3: above 20% growth control rate; Level 2: 5%-20% growth control rate; Level 1: below 5% growth control rate
Procedure, shortened: as §1

crab grass = test: as above; set-up: key: Level 10: completely dead; Level 9: above 95% growth control rate; Level 8: above 90% growth control rate; Level 7: above 80% growth control rate; Level 6: above 70% growth control rate; Level 5: above 60% growth control rate; Level 4: above 50% growth control rate; Level 3: above 20% growth control rate; Level 2: 5%-20% growth control rate; Level 1: below 5% growth control rate
Procedure, shortened: as §1

foxtail = test: as above; set-up: key: Level 10: completely dead; Level 9: above 95% growth control rate; Level 8: above 90% growth control rate; Level 7: above 80% growth control rate; Level 6: above 70% growth control rate; Level 5: above 60% growth control rate; Level 4: above 50% growth control rate; Level 3: above 20% growth control rate; Level 2: 5%-20% growth control rate; Level 1: below 5% growth control rate
Procedure, shortened: as §1

rice = test: post-emergence stage experiment, crop (Table 1); set-up: key: Level 10: completely dead; Level 9: above 95% growth control rate; Level 8: above 90% growth control rate; Level 7: above 80% growth control rate; Level 6: above 70% growth control rate; Level 5: above 60% growth control rate; Level 4: above 50% growth control rate; Level 3: above 20% growth control rate; Level 2: 5%-20% growth control rate; Level 1: below 5% growth control rate
Procedure, shortened: as §1

Compound: CCOc1c(C(=O)Oc2c(C(=O)c3ccc(C(F)(F)F)c(N4CCCCC4=O)c3Cl)cnn2C)cnn1C [Compound 032]
effect on crop, Wheat (level) (wheat): 1 (Level 1: below 5% growth control rate)
effect on crop, Corn (level) (corn): 4 (Level 4: above 50% growth control rate)
weed control effect, Echinochloa (level) (echinochloa): 9 (Level 9: above 95% growth control rate)
weed control effect, Indian mallow (level) (Indian mallow): 10
weed control effect, Bidens bipinnata (level) (bidens bipinnata): 6 (Level 6: above 70% growth control rate)
weed control effect, Rorippa indica (level) (rorippa indica): 10
weed control effect, Crab grass (level) (crab grass): 10
weed control effect, Green foxtail (level) (foxtail): 10
effect on crop, Rice (level) (rice): 8 (Level 8: above 90% growth control rate)

Compound: Cc1nn(C)cc1C(=O)Oc1c(C(=O)c2ccc(C(F)(F)F)c(N3CCCC3=O)c2Cl)cnn1C [Compound 016]
effect on crop, Wheat (level) (wheat): 3 (Level 3: above 20% growth control rate)
effect on crop, Corn (level) (corn): 3 (Level 3: above 20% growth control rate)
weed control effect, Echinochloa (level) (echinochloa): 10
weed control effect, Indian mallow (level) (Indian mallow): 10
weed control effect, Bidens bipinnata (level) (bidens bipinnata): 5 (Level 5: above 60% growth control rate)
weed control effect, Rorippa indica (level) (rorippa indica): 10
weed control effect, Crab grass (level) (crab grass): 10
weed control effect, Green foxtail (level) (foxtail): 10
effect on crop, Rice (level) (rice): 4 (Level 4: above 50% growth control rate)

effect on crop, Wheat (level) (wheat): 0
effect on crop, Corn (level) (corn): 0
Compound: CCn1nc(C2CC2)c(C(=O)c2ccc(C(F)(F)F)c(-n3cc(C)cn3)c2Cl)c1O [Compound 144]
weed control effect, Echinochloa (level) (echinochloa): 10
weed control effect, Indian mallow (level) (Indian mallow): 10
weed control effect, Bidens bipinnata (level) (bidens bipinnata): 10
weed control effect, Rorippa indica (level) (rorippa indica): 2 (Level 2: 5%-20% growth control rate)
weed control effect, Crab grass (level) (crab grass): 2 (Level 2: 5%-20% growth control rate)
weed control effect, Green foxtail (level) (foxtail): 9 (Level 9: above 95% growth control rate)
effect on crop, Rice (level) (rice): 8 (Level 8: above 90% growth control rate)

effect on crop, Wheat (level) (wheat): 2 (Level 2: 5%-20% growth control rate)
Compound: CCc1nn(CC)c(O)c1C(=O)c1ccc(C(F)(F)F)c(-n2cc(C)cn2)c1Cl [Compound 142]
effect on crop, Corn (level) (corn): 3 (Level 3: above 20% growth control rate)
weed control effect, Echinochloa (level) (echinochloa): 10
weed control effect, Indian mallow (level) (Indian mallow): 5 (Level 5: above 60% growth control rate)
weed control effect, Bidens bipinnata (level) (bidens bipinnata): 5 (Level 5: above 60% growth control rate)
weed control effect, Rorippa indica (level) (rorippa indica): 3 (Level 3: above 20% growth control rate)
weed control effect, Crab grass (level) (crab grass): 2 (Level 2: 5%-20% growth control rate)
weed control effect, Green foxtail (level) (foxtail): 6 (Level 6: above 70% growth control rate)
effect on crop, Rice (level) (rice): 7 (Level 7: above 80% growth control rate)

effect on crop, Corn (level) (corn): 0
Compound: CCOC(=O)Oc1c(C(=O)c2ccc(C(F)(F)F)c(N3CCCCC3=O)c2Cl)c(C)nn1C [Compound 036]
effect on crop, Wheat (level) (wheat): 3 (Level 3: above 20% growth control rate)
weed control effect, Echinochloa (level) (echinochloa): 7 (Level 7: above 80% growth control rate)
weed control effect, Indian mallow (level) (Indian mallow): 5 (Level 5: above 60% growth control rate)
weed control effect, Bidens bipinnata (level) (bidens bipinnata): 6 (Level 6: above 70% growth control rate)
weed control effect, Rorippa indica (level) (rorippa indica): 5 (Level 5: above 60% growth control rate)
weed control effect, Crab grass (level) (crab grass): 5 (Level 5: above 60% growth control rate)
weed control effect, Green foxtail (level) (foxtail): 10
effect on crop, Rice (level) (rice): 8 (Level 8: above 90% growth control rate)

effect on crop, Corn (level) (corn): 0
Compound: Cc1nn(C)cc1C(=O)Oc1c(C(=O)c2ccc(C(F)(F)F)c(N3CCCCC3=O)c2Cl)c(C)nn1C [Compound 038]
effect on crop, Wheat (level) (wheat): 1 (Level 1: below 5% growth control rate)
weed control effect, Echinochloa (level) (echinochloa): 9 (Level 9: above 95% growth control rate)
weed control effect, Indian mallow (level) (Indian mallow): 10
weed control effect, Bidens bipinnata (level) (bidens bipinnata): 2 (Level 2: 5%-20% growth control rate)
weed control effect, Rorippa indica (level) (rorippa indica): 10
weed control effect, Crab grass (level) (crab grass): 6 (Level 6: above 70% growth control rate)
weed control effect, Green foxtail (level) (foxtail): 10
effect on crop, Rice (level) (rice): 6 (Level 6: above 70% growth control rate)

effect on crop, Rice (level) (rice): 10
Compound: CCn1nc(C2CC2)c(C(=O)c2ccc(C(F)(F)F)c(N3CCCC3=O)c2Cl)c1OC(=O)c1cn(C)nc1C [Compound 105]
effect on crop, Wheat (level) (wheat): 5 (Level 5: above 60% growth control rate)
effect on crop, Corn (level) (corn): 5 (Level 5: above 60% growth control rate)
weed control effect, Echinochloa (level) (echinochloa): 10
weed control effect, Indian mallow (level) (Indian mallow): 9 (Level 9: above 95% growth control rate)
weed control effect, Bidens bipinnata (level) (bidens bipinnata): 10
weed control effect, Rorippa indica (level) (rorippa indica): 10
weed control effect, Crab grass (level) (crab grass): 10
weed control effect, Green foxtail (level) (foxtail): 10

effect on crop, Wheat (level) (wheat): 0
effect on crop, Rice (level) (rice): 0
Compound: Cc1cc(C)n(-c2c(C(F)(F)F)ccc(C(=O)c3c(C)nn(C)c3OC(=O)c3cn(C)nc3C)c2Cl)n1 [Compound 094]
effect on crop, Corn (level) (corn): 1 (Level 1: below 5% growth control rate)
weed control effect, Echinochloa (level) (echinochloa): 1 (Level 1: below 5% growth control rate)
weed control effect, Indian mallow (level) (Indian mallow): 3 (Level 3: above 20% growth control rate)
weed control effect, Bidens bipinnata (level) (bidens bipinnata): 2 (Level 2: 5%-20% growth control rate)
weed control effect, Rorippa indica (level) (rorippa indica): 0
weed control effect, Crab grass (level) (crab grass): 3 (Level 3: above 20% growth control rate)
weed control effect, Green foxtail (level) (foxtail): 1 (Level 1: below 5% growth control rate)

effect on crop, Wheat (level) (wheat): 0
effect on crop, Rice (level) (rice): 0
Compound: Cn1ncc(C(=O)c2ccc(C(F)(F)F)c(N3CCCCCC3=O)c2Cl)c1O [Compound 050]
effect on crop, Corn (level) (corn): 3 (Level 3: above 20% growth control rate)
weed control effect, Echinochloa (level) (echinochloa): 2 (Level 2: 5%-20% growth control rate)
weed control effect, Indian mallow (level) (Indian mallow): 9 (Level 9: above 95% growth control rate)
weed control effect, Bidens bipinnata (level) (bidens bipinnata): 3 (Level 3: above 20% growth control rate)
weed control effect, Rorippa indica (level) (rorippa indica): 5 (Level 5: above 60% growth control rate)
weed control effect, Crab grass (level) (crab grass): 3 (Level 3: above 20% growth control rate)
weed control effect, Green foxtail (level) (foxtail): 7 (Level 7: above 80% growth control rate)

effect on crop, Corn (level) (corn): 2 (Level 2: 5%-20% growth control rate)
effect on crop, Rice (level) (rice): 10
Compound: CCc1nn(C)c(OC(=O)c2cn(C)nc2C)c1C(=O)c1ccc(C(F)(F)F)c(N2CCCC2=O)c1Cl [Compound 101]
effect on crop, Wheat (level) (wheat): 3 (Level 3: above 20% growth control rate)
weed control effect, Echinochloa (level) (echinochloa): 10
weed control effect, Indian mallow (level) (Indian mallow): 10
weed control effect, Bidens bipinnata (level) (bidens bipinnata): 9 (Level 9: above 95% growth control rate)
weed control effect, Rorippa indica (level) (rorippa indica): 10
weed control effect, Crab grass (level) (crab grass): 4 (Level 4: above 50% growth control rate)
weed control effect, Green foxtail (level) (foxtail): 10

Compound: CCOc1c(C(=O)Oc2c(C(=O)c3ccc(C(F)(F)F)c(-n4cccn4)c3Cl)c(C3CC3)nn2C)cnn1C [Compound 074]
effect on crop, Wheat (level) (wheat): 1 (Level 1: below 5% growth control rate)
effect on crop, Corn (level) (corn): 3 (Level 3: above 20% growth control rate)
weed control effect, Echinochloa (level) (echinochloa): 6 (Level 6: above 70% growth control rate)
weed control effect, Indian mallow (level) (Indian mallow): 10
weed control effect, Bidens bipinnata (level) (bidens bipinnata): 4 (Level 4: above 50% growth control rate)
weed control effect, Rorippa indica (level) (rorippa indica): 10
weed control effect, Crab grass (level) (crab grass): 4 (Level 4: above 50% growth control rate)
weed control effect, Green foxtail (level) (foxtail): 9 (Level 9: above 95% growth control rate)
effect on crop, Rice (level) (rice): 9 (Level 9: above 95% growth control rate)

effect on crop, Corn (level) (corn): 0
Compound: CCc1nn(CC)c(O)c1C(=O)c1ccc(C(F)(F)F)c(-n2cccn2)c1Cl [Compound 132]
effect on crop, Wheat (level) (wheat): 1 (Level 1: below 5% growth control rate)
weed control effect, Echinochloa (level) (echinochloa): 9 (Level 9: above 95% growth control rate)
weed control effect, Indian mallow (level) (Indian mallow): 5 (Level 5: above 60% growth control rate)
weed control effect, Bidens bipinnata (level) (bidens bipinnata): 5 (Level 5: above 60% growth control rate)
weed control effect, Rorippa indica (level) (rorippa indica): 0
weed control effect, Crab grass (level) (crab grass): 3 (Level 3: above 20% growth control rate)
weed control effect, Green foxtail (level) (foxtail): 10
effect on crop, Rice (level) (rice): 5 (Level 5: above 60% growth control rate)
